Measured values reported in ChEMBL document CHEMBL1201862, “PubChem BioAssay data set” (2004).
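A five-concentration, 48-hour dose response in 96-well plates underlies each endpoint, interpolated linearly between surrounding concentrations. GI50 is the concentration that inhibits growth by half.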 Calls of active or inactive are those of the source. Cut-off read from the data, not from the text of the source: active = GI50 up to about 1.1 µM and inactive = higher.

Assays:
Assay in all cases: NCI tumour cell line growth inhibition, 48 h
HT-29 = tested on: HT-29
SF-539 = tested on: SF-539
SW-620 = tested on: SW-620
CAKI-1 = tested on: CAKI-1
OVCAR-4 = tested on: OVCAR-4
SNB-19 = tested on: SNB-19
SK-MEL-28 = tested on: SK-MEL-28
MOLT-4 = tested on: MOLT-4
U-251 = tested on: U-251
K562 = tested on: K562
ACHN = tested on: ACHN
786-0 = tested on: 786-0
KM12 = tested on: KM12
SK-MEL-2 = tested on: SK-MEL-2
OVCAR-5 = tested on: OVCAR-5
HCT-116 = tested on: HCT-116
SN12C = tested on: SN12C

Row | SMILES | GI50 (HT-29) | GI50 (SF-539) | GI50 (SW-620) | GI50 (CAKI-1) | GI50 (OVCAR-4) | GI50 (SNB-19) | GI50 (SK-MEL-28) | GI50 (MOLT-4) | GI50 (U-251) | GI50 (K562) | GI50 (ACHN) | GI50 (786-0) | GI50 (KM12) | GI50 (SK-MEL-2) | GI50 (OVCAR-5) | GI50 (HCT-116) | GI50 (SN12C)
1 | CCOC(=O)/C(=C/c1ccc(OC)cc1)N(CC)CC | > 100 µM (inactive) | > 100 µM (inactive) | > 100 µM (inactive) | > 100 µM (inactive) | > 100 µM (inactive) | > 100 µM (inactive) | > 100 µM (inactive) | > 100 µM (inactive) | > 100 µM (inactive) | > 100 µM (inactive) | > 100 µM (inactive) | > 100 µM (inactive) | > 100 µM (inactive) | > 100 µM (inactive) | > 100 µM (inactive) | > 100 µM (inactive) | > 100 µM (inactive)
2 | N[C@H](C(=O)O)[C@H](Cl)CC(=O)O | > 100 µM (inactive) | > 100 µM (inactive) | > 100 µM (inactive) | > 100 µM (inactive) | > 100 µM (inactive) | > 100 µM (inactive) | > 100 µM (inactive) | > 100 µM (inactive) | > 100 µM (inactive) | > 100 µM (inactive) | > 100 µM (inactive) | > 100 µM (inactive) | > 100 µM (inactive) | > 100 µM (inactive) | > 100 µM (inactive) | > 100 µM (inactive) | > 100 µM (inactive)
3 | O=C1SC(c2ccccc2)(c2ccccc2)c2ccccc21 | 57.7 µM (inactive) | > 100 µM (inactive) | 71.6 µM (inactive) | > 100 µM (inactive) | 92.5 µM (inactive) | > 100 µM (inactive) | > 100 µM (inactive) | 82.8 µM (inactive) | > 100 µM (inactive) | 74.5 µM (inactive) | 34.3 µM (inactive) | > 100 µM (inactive) | 66.8 µM (inactive) | > 100 µM (inactive) |  | > 100 µM (inactive) | > 100 µM (inactive)
4 | COC(=O)C1C(OCc2ccccc2)C2CCC1(OC)C=C2C (configuration not stated) | > 100 µM (inactive) | 97.7 µM (inactive) | > 100 µM (inactive) | > 77.6 µM (inactive) | > 100 µM (inactive) | > 81.8 µM (inactive) | > 100 µM (inactive) | 24.9 µM (inactive) | > 55.2 µM (inactive) | 41.1 µM (inactive) | > 61.8 µM (inactive) | > 100 µM (inactive) | > 100 µM (inactive) | > 50.8 µM (inactive) | > 100 µM (inactive) | 61.4 µM (inactive) | > 100 µM (inactive)
5 | c1ccc2c(c1)cc(C1NCCc3nc[nH]c31)c1ccccc12 (configuration not stated) | 44.4 µM (inactive) | > 45.2 µM (inactive) | 25.5 µM (inactive) | 48.8 µM (inactive) | 37.2 µM (inactive) | > 100 µM (inactive) | > 47.6 µM (inactive) | 21 µM (inactive) | 39.1 µM (inactive) | 15.2 µM (inactive) | 23.2 µM (inactive) | 32.1 µM (inactive) | 47.6 µM (inactive) | 18.4 µM (inactive) | > 74.3 µM (inactive) | 21.1 µM (inactive) | 56 µM (inactive)
6 | [N-]=[N+]=NC1(c2ccccc2)C(=O)C(Cl)=C(c2ccccc2)N(c2ccccc2)C1=O (configuration not stated) | > 100 µM (inactive) | > 100 µM (inactive) | > 100 µM (inactive) | > 100 µM (inactive) | > 100 µM (inactive) | > 100 µM (inactive) | > 100 µM (inactive) | 58.5 µM (inactive) | > 100 µM (inactive) | 46.8 µM (inactive) | > 100 µM (inactive) | > 100 µM (inactive) | > 100 µM (inactive) | > 100 µM (inactive) | > 100 µM (inactive) | > 100 µM (inactive) | > 100 µM (inactive)
7 | Cc1nc(=O)[nH]c2[nH][nH]c(=O)c12 | > 100 µM (inactive) | > 100 µM (inactive) | > 100 µM (inactive) | > 100 µM (inactive) | > 100 µM (inactive) |  | > 100 µM (inactive) | > 100 µM (inactive) | > 100 µM (inactive) | > 100 µM (inactive) | > 100 µM (inactive) | > 100 µM (inactive) | > 100 µM (inactive) | > 100 µM (inactive) | > 100 µM (inactive) | > 100 µM (inactive) | > 100 µM (inactive)
8 | C=CC[P@]1(=O)O[C@H](c2ccccc2)[C@H](C)N1C | > 100 µM (inactive) | > 100 µM (inactive) | > 100 µM (inactive) |  | > 100 µM (inactive) | > 100 µM (inactive) | > 100 µM (inactive) | > 100 µM (inactive) | > 100 µM (inactive) | > 100 µM (inactive) | > 100 µM (inactive) | > 100 µM (inactive) | > 100 µM (inactive) |  | > 100 µM (inactive) |  | > 100 µM (inactive)
9 | O=C(CCc1n[nH]c(=S)o1)Nc1ccc(Cl)cc1Cl | 34.3 µM (inactive) | > 100 µM (inactive) | 15.5 µM (inactive) | > 100 µM (inactive) | > 100 µM (inactive) | > 100 µM (inactive) | > 100 µM (inactive) | > 100 µM (inactive) | > 100 µM (inactive) | 38.7 µM (inactive) | > 100 µM (inactive) | > 100 µM (inactive) | > 100 µM (inactive) |  | > 100 µM (inactive) | 33.9 µM (inactive) | > 100 µM (inactive)
10 | FC(F)(F)C1(Cl)C(c2ccccc2)=C1c1ccccc1 | 15.8 µM (inactive) | 15.6 µM (inactive) | 13.4 µM (inactive) | 12.6 µM (inactive) | 13.5 µM (inactive) | 17.9 µM (inactive) | 14.9 µM (inactive) | 4.01 µM (inactive) | 14.7 µM (inactive) | 12.2 µM (inactive) | 16.6 µM (inactive) | 17 µM (inactive) | 15.6 µM (inactive) | 15 µM (inactive) | 17.4 µM (inactive) | 13.9 µM (inactive) | 15.6 µM (inactive)
11 | COc1cc2c(cc1OC)-c1c3cc(O)ccc3nn[n+]1CC2 | > 100 µM (inactive) | > 100 µM (inactive) | > 100 µM (inactive) |  | > 100 µM (inactive) | > 100 µM (inactive) | > 100 µM (inactive) | > 100 µM (inactive) | > 100 µM (inactive) | > 100 µM (inactive) |  | > 100 µM (inactive) | > 100 µM (inactive) |  |  | > 100 µM (inactive) | > 100 µM (inactive)
12 | O=C1NC2(CCCC2)C(=O)C12CCCC2 | > 100 µM (inactive) | > 100 µM (inactive) | > 100 µM (inactive) | > 100 µM (inactive) | > 100 µM (inactive) | > 100 µM (inactive) | > 100 µM (inactive) | > 100 µM (inactive) | > 100 µM (inactive) | > 100 µM (inactive) | > 100 µM (inactive) | > 100 µM (inactive) | > 100 µM (inactive) | > 100 µM (inactive) | > 100 µM (inactive) | > 100 µM (inactive) | > 100 µM (inactive)
13 | CC(=O)N(C)OC(=O)CC(=O)c1ccccc1 | > 100 µM (inactive) | > 100 µM (inactive) | > 100 µM (inactive) | > 100 µM (inactive) | > 100 µM (inactive) | > 100 µM (inactive) | > 100 µM (inactive) | > 100 µM (inactive) | > 100 µM (inactive) | > 100 µM (inactive) | > 100 µM (inactive) | > 100 µM (inactive) | > 100 µM (inactive) |  | > 100 µM (inactive) | > 100 µM (inactive) | > 100 µM (inactive)
14 | N#Cc1ccccc1Sc1ccccc1N | > 100 µM (inactive) | > 100 µM (inactive) | > 100 µM (inactive) | 36 µM (inactive) | 64.4 µM (inactive) | > 100 µM (inactive) | > 100 µM (inactive) | 43.8 µM (inactive) | > 100 µM (inactive) | 70.6 µM (inactive) | > 100 µM (inactive) | > 100 µM (inactive) | 93.3 µM (inactive) | > 100 µM (inactive) | 36.1 µM (inactive) |  | 78.3 µM (inactive)
15 | N#CC1(Cc2ccccc2Cl)c2ccccc2C=CN1C(=O)c1ccccc1 (configuration not stated) | 75.5 µM (inactive) | > 100 µM (inactive) | > 100 µM (inactive) |  |  | > 100 µM (inactive) | 54.8 µM (inactive) | 28.4 µM (inactive) | 48.9 µM (inactive) | 25.1 µM (inactive) | 90.8 µM (inactive) | > 100 µM (inactive) | > 100 µM (inactive) | > 100 µM (inactive) | > 100 µM (inactive) | > 100 µM (inactive) | 77.8 µM (inactive)
16 | CC(C)OP(=O)(OC(C)C)/C(=N/Nc1ccc([N+](=O)[O-])cc1)NNC(=O)c1ccccc1 |  | > 100 µM (inactive) | 32.8 µM (inactive) | 76.6 µM (inactive) | 31.4 µM (inactive) | 73.8 µM (inactive) | 40.6 µM (inactive) | 17.2 µM (inactive) | 26.1 µM (inactive) | 29.8 µM (inactive) | 82.4 µM (inactive) | > 100 µM (inactive) | 38.3 µM (inactive) | 43.2 µM (inactive) | > 100 µM (inactive) | 34.2 µM (inactive) | > 100 µM (inactive)
17 | COc1cc2c(c(OC)c1OC)-c1ccc(SC)c(=O)cc1[C@@H](NC(=O)c1ccc(OC(C)=O)cc1)CC2 | 0.0248 µM (active) | 0.0169 µM (active) | 0.029 µM (active) | 33.9 µM (inactive) | 0.0675 µM (active) |  | 0.0553 µM (active) | 0.0409 µM (active) | 0.0227 µM (active) | 0.0301 µM (active) | 0.0342 µM (active) | 0.0409 µM (active) | 0.0198 µM (active) |  | 24.7 µM (inactive) | 0.0229 µM (active) | 0.0324 µM (active)
